Values after ≈ are worked out from the molar mass of the structure shown.
System: K562
Experiment: Cytotoxicity against human K562 cells
Format: functional
Conditions: read-out: LC50 (the source's name)

| Compound | CC50 [µg/mL] |
| --- | --- |
| C=CCCCCC(C)CCCCCC#CCCCC(=O)O (configuration not stated) | 43.5 (≈ 149 µM) |
| C=CCCCCC(C)CCCCCC#CCCC(OC)C(=O)OC(=O)C(CCC#CCCCCCC(C)CCCCC=C)OC (configuration not stated) | 62.5 (≈ 99.7 µM) |
